One data set concerns Leishmania donovani. In words: Antiprotozoal activity against axenic amastigote stage of Leishmania donovani MHOM-ET-67/L82 by alamar-blue assay. The data set is classed as functional, organism-based. A general note: The colour change of resazurin is a common sign of viable cells or microbes.
Data set [1] has as its system Plasmodium falciparum. Kind of data set: Antiprotozoal activity against intraerythrocytic stage of chloroquine/pyrimethamine-resistant Plasmodium falciparum K1 by [3H]hypoxanthine incorporation assay. The data set is classed as functional, organism-based.
Data set [2] is described as follows: (§1) Cytotoxicity against rat L6 cells. The following applies: L6 cells. Type of data set: cell-based.
Data set [3] concerns Trypanosoma brucei rhodesiense. In words: Antiprotozoal activity against bloodstream form of Trypanosoma brucei rhodesiense STIB900 trypomastigote by alamar-blue assay. Type of data set: functional, organism-based.
Another data set has as its system Trypanosoma cruzi. In words: Antiprotozoal activity against intracellular amastigote stage of Trypanosoma cruzi Tulahuen C4 by colorimetric assay. The data set is classed as functional, organism-based.
For data set [4], the system named is Plasmodium falciparum. Kind of data set: Antiprotozoal activity against intraerythrocytic stage of chloroquine-sensitive Plasmodium falciparum NF54 by [3H]hypoxanthine incorporation assay. Type of data set: functional, organism-based.
The nature of data set [5]: Selectivity index, ratio of CC50 for rat L6 cells to IC50 for Plasmodium falciparum NF54. Type of data set: functional.
Data set [6] is described as follows: Binding affinity to fish sperm DNA assessed as hypochromicity after 1 min by UV-Vis spectrophotometry. More on the design: concentration or dose not given beside the values.
Data set [7] is described as follows: Selectivity index, ratio of CC50 for rat L6 cells to IC50 for bloodstream form of Trypanosoma brucei rhodesiense STIB900. The data set is classed as functional.
A short description of data set [8]: Selectivity index, ratio of CC50 for rat L6 cells to IC50 for Plasmodium falciparum K1. Type of data set: functional.
Data set [9] deals with Trypanosoma brucei rhodesiense. In words: Antitrypanosomal activity against Trypanosoma brucei rhodesiense STIB900 infected in NMRI mouse assessed as cure at 20 mg/kg, ip administered for 4 days. Type of data set: functional, organism-based. Set-up: dose 20 mg/kg.
The subject of data set [10] is Trypanosoma brucei rhodesiense. Kind of data set: Antitrypanosomal activity against Trypanosoma brucei rhodesiense STIB900 infected in NMRI mouse assessed as cure at 50 mg/kg, po administered for 4 days. Type of data set: functional, organism-based. Set-up: dose 50 mg/kg.
Data set [11] deals with Trypanosoma brucei rhodesiense. Kind of data set: Antitrypanosomal activity against Trypanosoma brucei rhodesiense STIB900 infected in NMRI mouse assessed as time duration by measuring mean day of relapse at 20 mg/kg, ip administered for 4 days. The data set is classed as functional. The following applies: route intraperitoneal.
Data set [12] concerns Trypanosoma brucei rhodesiense. Kind of data set: Antitrypanosomal activity against Trypanosoma brucei rhodesiense STIB900 infected in NMRI mouse assessed as time duration by measuring mean day of relapse at 50 mg/kg, po administered for 4 days. The data set is classed as functional.
Data set [13] relates to Hyperoartia. Kind of data set: Binding affinity to fish sperm DNA by circular dichroism spectroscopy. On the technique in general: Circular dichroism is widely used to follow secondary structure.
The next data set deals with L6. Described as §1. The data set is classed as cell-based. The following applies: l6.
Data set [14] concerns Trypanosoma brucei rhodesiense. In words: Antitrypanosomal activity against Trypanosoma brucei rhodesiense STIB900 infected in NMRI mouse assessed as cure at 5 mg/kg, ip administered for 4 days. Type of data set: functional, organism-based. Set-up: dose 5 mg/kg.
For data set [15], the system named is Hyperoartia. In words: Binding affinity to fish sperm DNA assessed as positive band of unvarying intensity at compound/DNA ratio 0.5 to 0.6 by circular dichroism spectroscopy.
Data set [16] has as its system Hyperoartia. In words: Binding affinity to fish sperm DNA assessed as reduction in positive band at compound/DNA ratio 1 to 2 by circular dichroism spectroscopy.
Data set [17] concerns Hyperoartia. In words: Binding affinity to fish sperm DNA assessed as weak negative band at compound/DNA ratio 1 to 2 by circular dichroism spectroscopy.
A further data set deals with Mus musculus. Kind of data set: Toxicity in NMRI mouse infected with Trypanosoma brucei rhodesiense STIB900 at 20 mg/kg, ip administered for 4 days. The data set is classed as organism-based. Conditions: in vivo, 96 h. More on the design: dose 20 mg/kg, route intraperitoneal.
Data set [18] concerns Trypanosoma brucei rhodesiense. Kind of data set: Antitrypanosomal activity against Trypanosoma brucei rhodesiense STIB900 infected in NMRI mouse assessed as time duration by measuring mean day of relapse at 5 mg/kg, ip administered for 4 days. Type of data set: functional. Conditions: route intraperitoneal.

“And” between values parts separate entries of the source, which are not always exact repeats. Identical values can stand only once. The source made the active and inactive calls. No cut-off for these calls is given here.

Broadly, the IC50 is the concentration that gives 50% inhibition. For orientation: CC50 means the concentration that lowers cell viability or growth by half.

Regarding `Nc1ccc2[nH]c3ccc(N)cc3c(=O)c2c1`, the IC50 in the data set with Leishmania donovani was determined as 321 µM; in the data set with Plasmodium falciparum [1], 2.5 µM; in data set [3] (Trypanosoma brucei, STIB900) it was 2.9 µM; in the data set with Trypanosoma cruzi, 149 µM. The compound further yielded a cytotoxic concentration (CC50) in data set [2] of 75 µM.

Take `Nc1ccc(Nc2ccc([N+](=O)[O-])cc2C(=O)O)cc1`: the IC50 in the data set on Leishmania donovani stood at 23 µM; with Plasmodium falciparum [1], 52 µM; in [3] (Trypanosoma brucei, STIB900) it was 55 µM; in the data set on Trypanosoma cruzi, 292 µM. Besides, the CC50 in [2] is > 365 µM.

As to `Cn1c2ccc(NC3=NCCN3)cc2c(=O)c2ccc(NC3=NCCN3)cc21.O=C(O)C(F)(F)F.O=C(O)C(F)(F)F`, the IC50 amounted to 0.56 µM in the data set on Plasmodium falciparum [4] (Plasmodium falciparum, NF54) and 0.008 µM in data set [3] (Trypanosoma brucei, STIB900). Moreover, the figures for the “Ratio CC50/IC50” value in [5] and in data set [7] were 175 and 12287, respectively. Moreover, in data set [2], the CC50 was 98 µM. Besides, the Activity in data set [6] is 50%.

Take `Nc1ccc2c(=O)c3cc(N)ccc3[nH]c2c1`: the IC50 was determined as 288 µM with Leishmania donovani; 4.8 µM with Plasmodium falciparum [1]; 19.2 µM in [3] (Trypanosoma brucei, STIB900); 269 µM in the data set on Trypanosoma cruzi. In data set [2], this compound displayed a CC50 of 23 µM.

Turning to `Nc1ccc2c(=O)c3cc([N+](=O)[O-])ccc3[nH]c2c1`, the IC50 in the data set with Leishmania donovani turned out to be 291 µM; with Plasmodium falciparum [1], 34 µM; in [3] (Trypanosoma brucei, STIB900) it was 67 µM; in the data set with Trypanosoma cruzi, 279 µM. This compound also yielded a CC50 in data set [2] of 147 µM.

Regarding `Cl.Cl.O=c1c2cc(NC3=NCCN3)ccc2[nH]c2ccc(NC3=NCCN3)cc12`, the half-inhibitory concentration (IC50) is 177 µM in the data set with Leishmania donovani; 0.34 µM in the data set on Plasmodium falciparum [1]; 0.069 µM in data set [3] (Trypanosoma brucei, STIB900); > 230 µM with Trypanosoma cruzi. For the same compound, the “Ratio CC50/IC50” value in data set [8] is recorded as >666; in data set [7] it was >3333. The CC50 in data set [2] is > 230 µM. Besides, the outcome in [9] was Active. Also, the outcome in data set [10] was inactive. Moreover, the Time in data set [11] was >45.5 days; in data set [12], 22 days. Moreover, the Activity in data set [6] came out at 49%.

With `Cl.Cl.O=c1c2ccc(NC3=NCCN3)cc2[nH]c2ccc(NC3=NCCN3)cc12`, the IC50 in the data set on Leishmania donovani is 73 µM; in the data set with Plasmodium falciparum [4] (Plasmodium falciparum, NF54), 0.83 µM; in data set [3] (Trypanosoma brucei, STIB900), 0.007 µM; in the data set with Trypanosoma cruzi, > 230 µM. The entries for the “Ratio CC50/IC50” value in [5] and in [7] were 128 and 15257, respectively. This compound also showed a CC50 in data set [2] of 107 µM. Besides, the result (in [9]; in the data set with Hyperoartia [13]) was Active. The Time in data set [11] is >50 days. In addition, the Activity in data set [6] came to 47%.

With `Nc1cccc(Nc2ccc([N+](=O)[O-])cc2C(=O)O)c1`, the concentration for half-maximal inhibition (IC50) is 61 µM in the data set on Leishmania donovani; 70 µM with Plasmodium falciparum [1]; 124 µM in data set [3] (Trypanosoma brucei, STIB900); 271 µM with Trypanosoma cruzi. In [2], this compound displayed a CC50 of 266 µM.

For `O=C(O)C(F)(F)F.O=C(O)C(F)(F)F.O=C1c2ccc(NC3=NCCN3)cc2C(=O)c2ccc(NC3=NCCN3)cc21`, the IC50 in the data set on Leishmania donovani is 145 µM; in the data set with Plasmodium falciparum [1] it was 0.06 µM; in data set [3] (Trypanosoma brucei, STIB900), 2.3 µM; with Trypanosoma cruzi it was 104 µM. Moreover, the “Ratio CC50/IC50” value in [8] amounted to 1229. In data set [2], this compound had a CC50 of 75 µM. Further, the result (in [9]; in the data set on Hyperoartia [13]) was Active. Also, the Activity in data set [6] was 46%.

For `Nc1ccc2[nH]c3ccc([N+](=O)[O-])cc3c(=O)c2c1`, the IC50 was 77 µM in the data set on Leishmania donovani; 49 µM in the data set with Plasmodium falciparum [1]; 19.5 µM in [3] (Trypanosoma brucei, STIB900); 287 µM in the data set on Trypanosoma cruzi. This compound also yielded a CC50 in [2] of 186 µM.

`O=C(O)C(F)(F)F.O=C(O)C(F)(F)F.O=c1c2ccc(NC3=NCCN3)cc2[nH]c2cc(NC3=NCCN3)ccc12`: the IC50 in the data set on Plasmodium falciparum [4] was determined as 0.09 µM; in [3] (Trypanosoma brucei, STIB900) it was 0.06 µM. The entries for the “Ratio CC50/IC50” value in data set [5] and in [7] were 1149 and 1647, respectively. This compound came in with a CC50 in the data set on L6 of 99 µM.

With `O=c1c2ccc(NC3=NCCN3)cc2[nH]c2cc(NC3=NCCN3)ccc12`, the result in data set [14] was inactive. Further, the Activity in [6] is 40% and 35%. Besides, the outcome in the data set with Hyperoartia [13], in the data set on Hyperoartia [15], in the data set on Hyperoartia [16] and in the data set with Hyperoartia [17] was Active.

Regarding `Cn1c2ccc(NC3=NCCN3)cc2c(=O)c2cc(NC3=NCCN3)ccc21.O=C(O)C(F)(F)F.O=C(O)C(F)(F)F`, the IC50 in the data set with Plasmodium falciparum [4] (Plasmodium falciparum, NF54) is 0.22 µM; in data set [3] (Trypanosoma brucei, STIB900), 0.007 µM. The entries for the “Ratio CC50/IC50” value in data set [5] and in [7] were 468 and 14843, respectively. In data set [2], this compound yielded a CC50 of 104 µM. Moreover, the Activity in data set [6] stood at 48%.

Turning to `Cl.Cl.O=c1c2ccc(NC3=NCCN3)cc2[nH]c2cc(NC3=NCCN3)ccc12`, the IC50 is 113 µM with Leishmania donovani, 0.25 µM in the data set on Plasmodium falciparum [4], 0.062 µM in data set [3] and > 230 µM in the data set on Trypanosoma cruzi. The “Ratio CC50/IC50” value in data set [5] is reported as 546; in data set [7] it was 2210. In data set [2], the CC50 came to 137 µM. Also, the Activity entry in the data set on Mus musculus is recorded as “Non-toxic”. Further, in data set [18], the Time is 14 days.

`COc1cc([C@@H]2c3cc4c(cc3[C@H](O)[C@H]3COC(=O)[C@H]23)OCO4)cc(OC)c1OC` [PODOFILOX] yielded a CC50 in [2] of 0.012 µM.

As to `CC(C)(C)OC(=O)N1CCN(C(=O)OC(C)(C)C)C1=Nc1ccc2[nH]c3ccc(N=C4N(C(=O)OC(C)(C)C)CCN4C(=O)OC(C)(C)C)cc3c(=O)c2c1`, the IC50 with Leishmania donovani was > 127 µM; in the data set on Plasmodium falciparum [1], 33 µM; in data set [3] (Trypanosoma brucei, STIB900), 2.2 µM; in the data set on Trypanosoma cruzi, 50 µM. The same compound returned a CC50 in data set [2] of 73 µM.

In the case of `CCCCCCCCCCCCCCCCOP(=O)([O-])OCC[N+](C)(C)C` [MILTEFOSINE], in the data set with Leishmania donovani, the IC50 was determined as 0.45 µM.
